The source of these data is the supplement of paper PMC11208160.

This series in a line: recombinant barcode read abundance after kanamycin selection (control-corrected) (log10(CPM+1)); higher = more efficient recombination; sequences stand for … in AGTGCAGAGAAAATCGGCCAGTTTTCTCTGCCTGCAGTCCGCATGCCGT…AGATTTATGCAGCGGACTGCCTTTCTCCCAAAGTGATAAACCGGACAGTATCATGGACCGGTTTTCCCGGTAATCCGTATTTGCAAGGTTGGTTTCACT; site = the 11-nt target. Summed up:
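Recombination efficiency draws on barcodes counted at recombinant junctions in a pooled E. coli screen of targets paired with IS621 bridge RNA target-binding loops. The counts were converted to counts per million, averaged and corrected against the chloramphenicol/ampicillin LB agar control, then reported as log10(CPM+1). Selection plates held chloramphenicol/ampicillin/kanamycin with 0.1 mM IPTG, with two replicates per condition.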
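Note: IS621 recombinase and bridge RNA in Escherichia coli cells.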

Turning to “GACGCAACTTGGGTTCTAACCTGTTGCAT (site GACGCTTCTAT)”, the “recombinant barcode read abundance (log10)” value was determined as 0.0419.
For the sequence “GACGCCACTTGGGTTCTAACCTGTTGCCT (site AACGCCACTAG)”, the “recombinant barcode read abundance (log10)” value came out at 0.162.
As for “GACGCCACTTGGGTTCTAACCTGTTGCCT (site GACGCCACTAG)”, the “recombinant barcode read abundance (log10)” value came out at 0.425.
As for “GACGCCTCTTGGGTTCTAACCTGTTGCCT (site AACGCCTCTAG)”, the “recombinant barcode read abundance (log10)” value was determined as 0.227.
Turning to “GACGCCTCTTGGGTTCTAACCTGTTGCCT (site CACGCCTCTAG)”, the “recombinant barcode read abundance (log10)” value turned out to be 0.202.
For the sequence “GACGCCTCTTGGGTTCTAACCTGTTGCCT (site GACGCCTCTAG)”, the “recombinant barcode read abundance (log10)” value was determined as 0.47.
For the sequence “GACGCCTCTTGGGTTCTAACCTGTTGCCT (site TACGCCTCTAG)”, the “recombinant barcode read abundance (log10)” value was 0.
As for “GACGCCTCTTGGGTTCTAACCTGTTGCGC (site GACGCCTCTGC)”, the “recombinant barcode read abundance (log10)” value is 2.25.
Next, “GACGCCTCTTGGGTTCTAACCTGTTGCGC (site TTGAAACCTAG)”: 0.26; “GACGGACCTTGGGTTCTAACCTGTTGCTA (site ATAACGGCTAG)”: 0.0648; “GACGGACCTTGGGTTCTAACCTGTTGCTA (site GACGGACCTTA)”: 1.26.
Next, “GACGGATCTTGGGTTCTAACCTGTTGCCT (site GACGGATCTAA)”: 0.842.
For “GACGGATCTTGGGTTCTAACCTGTTGCCT (site GACGGATCTAC)”, the “recombinant barcode read abundance (log10)” value worked out at 0.101.
On to “GACGGATCTTGGGTTCTAACCTGTTGCCT (site GACGGATCTAG)”, for which the “recombinant barcode read abundance (log10)” value amounted to 0.212.
Turning to “GACGGATCTTGGGTTCTAACCTGTTGCCT (site GACGGATCTAT)”, the “recombinant barcode read abundance (log10)” value is 0.0859.
Turning to “GACGGCACTTGGGTTCTAACCTGTTGCGG (site GACGGCACTCC)”, the “recombinant barcode read abundance (log10)” value is 2.56.
For the sequence “GACGGCACTTGGGTTCTAACCTGTTGCGG (site TCTCATGCTAT)”, the “recombinant barcode read abundance (log10)” value came out at 0.166.
Next, “GACGGCTCTTGGGTTCTAACCTGTTGCCT (site GACGGCTCTAG)”: 1.3.
“GACGGCTCTTGGGTTCTAACCTGTTGCCT (site GCCGGCTCTAG)”: the “recombinant barcode read abundance (log10)” value came to 0.365.
For the sequence “GACGGGGCTTGGGTTCTAACCTGTTGCAG (site GACGGAGCTCA)”, the “recombinant barcode read abundance (log10)” value was 0.753.
“GACGGGGCTTGGGTTCTAACCTGTTGCAG (site GACGGGGCTCT)”: the “recombinant barcode read abundance (log10)” value came out at 2.59.
To “GACGTACCTTGGGTTCTAACCTGTTGCCT (site GACATACCTAG)” belongs 0.428; to “GACGTACCTTGGGTTCTAACCTGTTGCCT (site GACCTACCTAG)”, 0.133; to “GACGTACCTTGGGTTCTAACCTGTTGCCT (site GACGTACCTAG)”, 1.31.
As to “GACGTACCTTGGGTTCTAACCTGTTGCCT (site GACTTACCTAG)”, the “recombinant barcode read abundance (log10)” value was 0.0104.
To “GACGTAGCTTGGGTTCTAACCTGTTGCCT (site GACGTAGCTAG)” belongs 1.6.
For the sequence “GACGTAGCTTGGGTTCTAACCTGTTGCCT (site GCCGTAGCTAG)”, the “recombinant barcode read abundance (log10)” value was found to be 0.083.
Next, “GACGTAGCTTGGGTTCTAACCTGTTGCCT (site GGCGTAGCTAG)”: 0.52; “GACGTAGCTTGGGTTCTAACCTGTTGCCT (site GTCGTAGCTAG)”: 0.279.
Consider “GACGTTGCTTGGGTTCTAACCTGTTGCCT (site GACGTTGCTAG)”, for which the “recombinant barcode read abundance (log10)” value was 1.32.
With “GACGTTGCTTGGGTTCTAACCTGTTGCCT (site GACTTTACTAG)”, the “recombinant barcode read abundance (log10)” value worked out at 0.102.
Consider “GACTACCCTTGGGTTCTAACCTGTTGCCT (site ATGCTGTCTTA)”, for which the “recombinant barcode read abundance (log10)” value was found to be 0.0344.
As for “GACTACCCTTGGGTTCTAACCTGTTGCCT (site GACTACCCTAG)”, the “recombinant barcode read abundance (log10)” value stood at 2.2.
With “GACTCCGCTTGGGTTCTAACCTGTTGCCT (site GACTCCGCTAG)”, the “recombinant barcode read abundance (log10)” value was found to be 0.876.
Regarding “GACTCCGCTTGGGTTCTAACCTGTTGCCT (site TACTCCGCTAG)”, the “recombinant barcode read abundance (log10)” value amounted to 0.692.
Take “GACTCGACTTGGGTTCTAACCTGTTGCTT (site GAATCAACTAA)”: the “recombinant barcode read abundance (log10)” value was found to be 0.122.
Take “GACTCGACTTGGGTTCTAACCTGTTGCTT (site GACTCGACTAA)”: the “recombinant barcode read abundance (log10)” value worked out at 0.395.
Consider “GACTCTCCTTGGGTTCTAACCTGTTGCTT (site GACTCTCCTAA)”, for which the “recombinant barcode read abundance (log10)” value came out at 1.53.
For “GACTCTCCTTGGGTTCTAACCTGTTGCTT (site GACTCTCCTAC)”, the “recombinant barcode read abundance (log10)” value worked out at 0.0892.
To “GACTCTCCTTGGGTTCTAACCTGTTGCTT (site GACTCTCCTAG)” belongs 0.029; to “GACTCTCCTTGGGTTCTAACCTGTTGCTT (site GACTCTCCTAT)”, 0.241; to “GACTGGTCTTGGGTTCTAACCTGTTGCAT (site GACTGGTCTAG)”, 0.969.
Take “GACTGGTCTTGGGTTCTAACCTGTTGCAT (site GACTGGTCTAT)”: the “recombinant barcode read abundance (log10)” value turned out to be 1.6.
On to “GACTGGTCTTGGGTTCTAACCTGTTGCCT (site GACTGGTCTAG)”, for which the “recombinant barcode read abundance (log10)” value came to 1.45.
Take “GACTGGTCTTGGGTTCTAACCTGTTGCCT (site GACTGGTCTAT)”: the “recombinant barcode read abundance (log10)” value amounted to 0.364.
Turning to “GACTTACCTTGGGTTCTAACCTGTTGCCT (site GACATACCTAG)”, the “recombinant barcode read abundance (log10)” value is 0.134.
In the case of “GACTTACCTTGGGTTCTAACCTGTTGCCT (site GACCTACCTAG)”, the “recombinant barcode read abundance (log10)” value came out at 1.43.
In the case of “GACTTACCTTGGGTTCTAACCTGTTGCCT (site GACGTACCTAG)”, the “recombinant barcode read abundance (log10)” value is 0.111.
“GACTTACCTTGGGTTCTAACCTGTTGCCT (site GACTTACCTAG)”: the “recombinant barcode read abundance (log10)” value was found to be 0.843.
Consider “GACTTGCCTTGGGTTCTAACCTGTTGCAT (site GACTTACCTAT)”, for which the “recombinant barcode read abundance (log10)” value turned out to be 0.0511.
For the sequence “GACTTGCCTTGGGTTCTAACCTGTTGCAT (site GACTTCCCTAT)”, the “recombinant barcode read abundance (log10)” value stood at 0.113.
With “GACTTGCCTTGGGTTCTAACCTGTTGCAT (site GACTTGCCTAT)”, the “recombinant barcode read abundance (log10)” value worked out at 0.313.
To “GACTTGCCTTGGGTTCTAACCTGTTGCAT (site GACTTTCCTAT)” belongs 0.813.
For the sequence “GAGAAGACTTGGGTTCTAACCTGTTGCGT (site ACTCGTCCTTA)”, the “recombinant barcode read abundance (log10)” value was found to be 0.118.
Take “GAGAAGACTTGGGTTCTAACCTGTTGCGT (site GAGAAGACTAC)”: the “recombinant barcode read abundance (log10)” value came out at 2.56.
On to “GAGACATCTTGGGTTCTAACCTGTTGCCT (site GAGAAATCTAG)”, for which the “recombinant barcode read abundance (log10)” value stood at 0.11.
To “GAGACATCTTGGGTTCTAACCTGTTGCCT (site GAGACATCTAG)” belongs 0.732; to “GAGACATCTTGGGTTCTAACCTGTTGCCT (site GAGAGATCTAG)”, 0.463.
To “GAGACATCTTGGGTTCTAACCTGTTGCCT (site GAGATATCTAG)” belongs 0.206.
